From US20210223237A1, “COMPOSITIONS AND METHODS FOR STUDYING DRUG METABOLISM” (Boehringer Ingelheim International GmbH, priority 2020, published 2021)
Where “and” joins values, the source holds several entries; their conditions need not be identical. Identical values can stand only once. Like-named read-outs stand apart in the source and are kept apart here.

Tests used:
[1] = target: T1, CYP2C8 (Homo sapiens, UniProt P10632)
T1 sequence (P10632 1-490): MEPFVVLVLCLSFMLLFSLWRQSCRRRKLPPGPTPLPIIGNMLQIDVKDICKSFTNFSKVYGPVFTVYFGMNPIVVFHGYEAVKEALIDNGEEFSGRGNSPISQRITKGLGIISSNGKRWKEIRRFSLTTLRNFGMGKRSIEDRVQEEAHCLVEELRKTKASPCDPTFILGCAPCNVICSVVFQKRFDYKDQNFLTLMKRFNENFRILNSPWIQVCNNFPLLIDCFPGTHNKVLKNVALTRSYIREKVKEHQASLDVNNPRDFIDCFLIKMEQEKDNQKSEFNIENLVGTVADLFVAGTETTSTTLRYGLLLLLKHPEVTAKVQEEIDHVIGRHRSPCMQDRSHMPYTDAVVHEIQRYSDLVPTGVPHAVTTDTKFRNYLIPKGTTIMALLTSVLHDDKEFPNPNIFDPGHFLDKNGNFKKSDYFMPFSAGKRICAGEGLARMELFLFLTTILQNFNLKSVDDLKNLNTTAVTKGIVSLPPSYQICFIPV

[2] = target: T2, UGT1A1 (Homo sapiens, UniProt P22309); assay: in vitro; conditions: pH 7.8
T2 sequence (P22309 26-533): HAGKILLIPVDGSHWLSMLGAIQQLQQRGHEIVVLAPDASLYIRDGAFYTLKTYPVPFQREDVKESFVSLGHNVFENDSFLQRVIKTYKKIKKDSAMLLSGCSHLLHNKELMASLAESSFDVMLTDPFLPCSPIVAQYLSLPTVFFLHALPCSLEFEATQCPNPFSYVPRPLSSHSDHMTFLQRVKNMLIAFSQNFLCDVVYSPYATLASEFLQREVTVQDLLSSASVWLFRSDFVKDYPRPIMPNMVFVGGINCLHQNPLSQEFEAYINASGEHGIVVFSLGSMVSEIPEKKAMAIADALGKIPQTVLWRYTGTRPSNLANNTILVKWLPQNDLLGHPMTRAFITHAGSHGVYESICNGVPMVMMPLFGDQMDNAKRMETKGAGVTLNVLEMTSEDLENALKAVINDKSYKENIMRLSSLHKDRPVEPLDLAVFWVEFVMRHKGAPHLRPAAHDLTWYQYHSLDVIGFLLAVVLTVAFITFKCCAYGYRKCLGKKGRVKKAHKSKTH

[3] = target: T2, UGT1A1; assay: UGT1A1-catalyzed E2 3-glucuronidation kinetics in HLM suspensions vs HLM-beads
[4] = Non-specific binding of compounds to magnetizable beads alone; conditions: 30 min incubation of beads (5.3×10^9 beads), bioanalysis of supernatant
[5] = in vitro; conditions: human, microsomes
[6] = in vitro; conditions: human, microsomes; remark: listed apart in the source
[7] = in vitro; conditions: human, pH 7.4
[8] = in vivo; cited from earlier work
[9] = HLM 0.005 mg/ml
[10] = system: CYP3A; assay: CYP3A-mediated midazolam 1′hydroxylation kinetics in HLM suspensions vs HLM-beads; parameters: Km, times higher with HLM-beads than with HLM suspensions: unit not given beside the values; conditions: for microsomal CLint / Km: human; for microsomal CLint: pH 7.4; for Km: pH 7.4, probe midazolam (1′-hydroxylation)
[11] = Microsomal binding (fu,mic) using HLM-beads; conditions: HLM-beads; HLM 1.0 mg/ml; compound 1.0 μM; (SD)
[12] = human, microsomes, 6 h, 1 μM
[13] = cited from earlier work
[14] = substrate: C[C@]12CC[C@@H]3c4ccc(O)cc4CC[C@H]3[C@@H]1CC[C@@H]2O; assay: not read; conditions: other: HLM suspensions; allosteric sigmoidal modeling; pH 7.8; 37.0 °C
[15] = substrate: CC(C)c1cccc(C(C)C)c1O
[16] = human liver microsomes (suspension)

## CCN(CC)Cc1cc(Nc2ccnc3cc(Cl)ccc23)ccc1O [Amodiaquine, amodiaquine]
[1]
  Km, times higher with HLM-beads than with HLM suspensions: approximately 2 ×

## C[C@]12CC[C@@H]3c4ccc(O)cc4CC[C@H]3[C@@H]1CC[C@@H]2O [E2, estradiol]
[2]; [16]
  microsomal CLint: 59 µL/min/mg
[2]
  microsomal CLint: 88 µL/min/mg
[3]
  V/K or CLint, fold higher in HLM-beads than in HLM suspensions: higher
  Vmax, HLM-beads compared with HLM suspensions: comparable

## Cc1ncc2n1-c1ccc(Cl)cc1C(c1ccccc1F)=NC2 [Midazolam, midazolam]
[4]
  non-specific binding to the beads: not observed
[5]
  fraction unbound at 5 min, 1 μM: 0.76
[6]
  fraction unbound at 6 h, 1 μM: 0.98
[7]
  CLhep predicted at 1 μM: 9.47 mL/min/kg
  microsomal CLint at 1 μM: 842 µL/min/mg
[8]
  blood clearance reported in the literature: 8.59 mL/min/kg
[9]; HLM suspensions, no new HLM added, up to 160 min
  depletion of parent midazolam: No perceptible depletion
[9]; HLM-bead relay every 20 minutes
  metabolism of midazolam on exchange of used HLM-beads with fresh HLM-beads: continued metabolism
[10]; HLM suspensions
  Vmax: 2002 ± 66 pmol/min/mg
[10]; HLM-beads
  Vmax: 4350 ± 249^sig pmol/min/mg
[10]; HLM-beads vs HLM suspensions
  Km, times higher with HLM-beads than with HLM suspensions: ~3 ×
[10]; [16]
  microsomal CLint: 2830 µL/min/mg
[10]; human liver microsomes bound to beads (HLM-beads)
  Km: 2.04 ± 0.23 µM
[10]; human liver microsomes in suspension (no beads)
  Km: 0.612 ± 0.086 µM
[10]
  microsomal CLint: 2130 µL/min/mg
[11]
  fu,mic: 0.53 (0.02)

## CC(=O)CC(c1ccccc1)c1c(O)c2ccccc2oc1=O (centres unmarked) [Warfarin, warfarin]
[12]
  fu,mic: 0.86 (0.08)
[6]
  fraction unbound at 6 h, 1 μM: 0.94
[13]
  pKa: 5.0

B1: UGT1A1 (Homo sapiens) (protein)
chain: T2 sequence (P22309 26-533)
[14]
  K0.5: 13 ± 1 µM

B2: UGT1A9 (Homo sapiens) (protein)
chain: GKLLVVPMDGSHWFTMRSVVEKLILRGHEVVVVMPEVSWQLGRSLNCTVKTYSTSYTLEDLDREFKAFAHAQWKAQVRSIYSLLMGSYNDIFDLFFSNCRSLFKDKKLVEYLKESSFDAVFLDPFDNCGLIVAKYFSLPSVVFARGILCHYLEEGAQCPAPLSYVPRILLGFSDAMTFKERVRNHIMHLEEHLLCHRFFKNALEIASEILQTPVTEYDLYSHTSIWLLRTDFVLDYPKPVMPNMIFIGGINCHQGKPLPMEFEAYINASGEHGIVVFSLGSMVSEIPEKKAMAIADALGKIPQTVLWRYTGTRPSNLANNTILVKWLPQNDLLGHPMTRAFITHAGSHGVYESICNGVPMVMMPLFGDQMDNAKRMETKGAGVTLNVLEMTSEDLENALKAVINDKSYKENIMRLSSLHKDRPVEPLDLAVFWVEFVMRHKGAPHLRPAAHDLTWYQYHSLDVIGFLLAVVLTVAFITFKCCAYGYRKCLGKKGRVKKAHKSKTH
[15]
  K0.5: 30 ± 4 μM and 13 ± 2^sig μM
